This passage reports TGI results from PubChem BioAssay (NCI).

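Where inhibition never reached the appropriate level, the endpoint shown equals the highest concentration tested. Otherwise, values were interpolated linearly from a five-concentration, 48-hour dose response in 96-well plates. TGI denotes the concentration required for complete inhibition of growth.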

Among the test systems are LXFL 529 NSCLC; DLD-1 colon; KM20L2 colon; M19-MEL melanoma; SF-268 CNS; ACHN renal; 786-0 renal; DMS 114 small cell lung; SNB-78 CNS; HOP-18 NSCLC; NCI-H522 lung; XF 498 CNS; DMS 273 small cell lung; DU-145 prostate.
What all share (assay): inhibition of tumour cell growth, NCI panel, 48 h

In the case of `O=C(c1ccc(Cl)cc1)N(C(=S)N1CCN(c2ccccn2)CC1)C1CCCCC1`, the TGI with LXFL 529 NSCLC, in the experiment on DLD-1 colon, with KM20L2 colon, in the experiment with M19-MEL melanoma, with SF-268 CNS and in the experiment on ACHN renal was over 100 µM in each case. The TGI in the experiment with 786-0 renal was over 100 µM; in the experiment on DMS 114 small cell lung it was over 100 µM; in the experiment on SNB-78 CNS, over 100 µM; in the experiment with HOP-18 NSCLC it was over 100 µM; with NCI-H522 lung, over 100 µM; with XF 498 CNS, 80.3 µM. For the same molecule, the TGI in the experiment on DMS 273 small cell lung is over 100 µM.

Regarding `CCOC(=O)C(Cc1c[nH]c2cc([N+](=O)[O-])ccc12)NS(=O)(=O)c1ccc2ccccc2c1` (configuration not stated), the TGI was 32.5 µM in the experiment with LXFL 529 NSCLC; 65.7 µM with DLD-1 colon; 33.9 µM in the experiment with KM20L2 colon; 30.9 µM in the experiment with M19-MEL melanoma; 43.5 µM in the experiment on SF-268 CNS; 57.9 µM in the experiment with ACHN renal. Besides, the TGI is 76.1 µM in the experiment on 786-0 renal; 38.3 µM with DMS 114 small cell lung; 47.7 µM with SNB-78 CNS; over 100 µM in the experiment with HOP-18 NSCLC; 30.4 µM with NCI-H522 lung; 31.3 µM in the experiment on XF 498 CNS. This molecule came in with a TGI with DMS 273 small cell lung of 32.1 µM.

`O=C(O)c1ccc(C2=Cc3cc(Cl)ccc3OC2)cc1`: the TGI in the experiment on LXFL 529 NSCLC, with DLD-1 colon, in the experiment on KM20L2 colon, in the experiment with M19-MEL melanoma, with SF-268 CNS and with ACHN renal was over 100 µM throughout. Besides, the TGI in the experiment with 786-0 renal, in the experiment on DMS 114 small cell lung, in the experiment on SNB-78 CNS, in the experiment on HOP-18 NSCLC, in the experiment with NCI-H522 lung and with XF 498 CNS was over 100 µM each time. Also, the TGI with DMS 273 small cell lung was over 100 µM.

As for `C[C@@H]1C(=O)C[C@H]2C(C)(C)CCC[C@]2(C)[C@@]1(O)CCc1ccoc1`, the TGI with SF-268 CNS, in the experiment with ACHN renal, in the experiment with 786-0 renal, in the experiment on DU-145 prostate and with NCI-H522 lung was over 100 µM throughout.

Turning to `O=C(NC(=O)c1cc(-c2ccccc2)n[nH]1)c1ccccc1`, the TGI with SF-268 CNS, with ACHN renal, in the experiment with 786-0 renal, with DU-145 prostate and in the experiment with NCI-H522 lung was over 100 µM throughout.

In the case of `Cc1cc(S(=O)(=O)Nc2nnc3cnc4ccccc4n23)c(S)cc1Cl`, the TGI with SF-268 CNS, with ACHN renal, in the experiment on 786-0 renal, with DU-145 prostate and in the experiment on NCI-H522 lung was over 100 µM throughout.

On to `O=C(N=c1ccc2nc(=O)[nH]n(O)c-2c1)C(F)(F)F`, for which the TGI in the experiment on SF-268 CNS, in the experiment with ACHN renal, in the experiment with 786-0 renal, with DU-145 prostate and with NCI-H522 lung was over 100 µM throughout.

For the molecule `NC(CSSCC(N)=NCC12CC3CC(CC(C3)C1)C2)=NCC12CC3CC(CC(C3)C1)C2`, the TGI in the experiment with SF-268 CNS is over 100 µM; in the experiment with ACHN renal, 26.6 µM; with 786-0 renal it was over 100 µM; with DU-145 prostate it was 32.5 µM; with NCI-H522 lung, 38.6 µM.

`NCC(O)CNC(=O)c1ccc(-c2ccc(-c3ccc(C(=O)NCC(O)CN)cc3)o2)cc1` (configuration not stated): the TGI with SF-268 CNS is 69.3 µM; in the experiment on ACHN renal, over 100 µM; with 786-0 renal, 48.5 µM; in the experiment on DU-145 prostate, 50.6 µM; in the experiment with NCI-H522 lung, over 100 µM.

On to `CSc1ccn(C2CC(F)C(CO)O2)c(=O)n1` (configuration not stated), for which the TGI with SF-268 CNS, in the experiment on ACHN renal, in the experiment on 786-0 renal, in the experiment with DU-145 prostate and in the experiment with NCI-H522 lung was over 100 µM each time.

Regarding `NC1=NS(=O)(=O)Nc2nc(-c3ccccc3)[nH]c21`, the TGI in the experiment on LXFL 529 NSCLC, in the experiment with DLD-1 colon, with KM20L2 colon, in the experiment with M19-MEL melanoma, in the experiment with SF-268 CNS and with ACHN renal was over 100 µM throughout. Besides, the TGI with 786-0 renal, with DMS 114 small cell lung, in the experiment on SNB-78 CNS, in the experiment on HOP-18 NSCLC, with NCI-H522 lung and in the experiment on XF 498 CNS was over 100 µM throughout. This molecule also yielded a TGI in the experiment with DMS 273 small cell lung of over 100 µM.

On to `C=C(C)COC1CCCCO1` (configuration not stated), for which the TGI with SF-268 CNS, with ACHN renal, in the experiment with 786-0 renal, in the experiment with DU-145 prostate and in the experiment with NCI-H522 lung was over 100 µM throughout.

In the case of `S=c1[nH]n2c(CCCCCCCCc3nnc4sc(=S)[nH]n34)nnc2s1`, the TGI in the experiment on SF-268 CNS, in the experiment on ACHN renal, in the experiment with 786-0 renal, in the experiment on DU-145 prostate and in the experiment on NCI-H522 lung was over 100 µM in each case.

As to `COC(=O)N[C@H](C(=O)O)C(C)O[Si](C)(C)C(C)(C)C` (some centres not stated), the TGI in the experiment with SF-268 CNS, with ACHN renal, in the experiment with 786-0 renal, in the experiment on DU-145 prostate and in the experiment with NCI-H522 lung was over 100 µM throughout.

As for `CC(C)(C)c1cc(OCc2nn3c(Cc4ccccc4)nnc3s2)c(Cl)cc1OCc1nn2c(Cc3ccccc3)nnc2s1`, the TGI in the experiment with SF-268 CNS, in the experiment on ACHN renal, in the experiment with 786-0 renal, in the experiment with DU-145 prostate and in the experiment with NCI-H522 lung was over 100 µM in each case.

For the molecule `Cn1ncc2c(Cl)ncnc21`, the TGI in the experiment on SF-268 CNS, in the experiment with ACHN renal, with 786-0 renal, with DU-145 prostate and in the experiment with NCI-H522 lung was over 100 µM throughout.

For `N=c1c2c(=S)n(-c3ccccc3)c(=S)n(-c3ccccc3)c2nc(SCCN2CCCC2)n1-c1ccccc1`, the TGI worked out at 5.69 µM in the experiment on SF-268 CNS; 3.26 µM in the experiment with ACHN renal; 2 µM in the experiment on 786-0 renal; 3.29 µM in the experiment on DU-145 prostate; 3.71 µM in the experiment with NCI-H522 lung.

In the case of `Cc1cc(S(=O)(=O)Nc2nc3ccccc3nc2-c2ccc(Cl)cc2)c(S)cc1Cl`, the TGI in the experiment on SF-268 CNS came to 35.3 µM; with ACHN renal it was 34.9 µM; in the experiment on 786-0 renal it was 43.5 µM; in the experiment on DU-145 prostate it was 29.9 µM; with NCI-H522 lung, 28.3 µM.
